Values quoted from earlier work, collected in patent US4650854A, “Amide analogs of calcitonin” (USV Pharmaceutical Corporation, priority 1985, dated 1987).
Where no end group is shown, it is not given here.

Details: Monikawa et al., Experientia 32(9), 1104-1106 (1976)

Substance | hypocalcemic potency
(1,7-α-L-aminosuberic acid)eel calcitonin | about 3400 Iu/mg
eel calcitonin (CSNLSTCVLGKLSQELHKLQTYPRTDVGAGTP; ends and bridges not checked; cysteine pairing not given here; UniProt P01262 1-32, looked up) [synthetic eel calcitonin, synthetic eel calcitonin, natural 32 amino acid calcitonin peptide] | around 4300 Iu/mg
